One may read the EC50 as the concentration at which the effect is half-maximal. High values mean weaker potency, low ones greater potency.

The experiment addresses T1, human FFAR1 (GPR40) (Homo sapiens, UniProt O14842).
T1 construct: Flag; expressed in transfected cells; host or cells: HEK293T
Kind of experiment: NFAT-RE-based reporter gene activity assay (Dual-Glo luciferase) for GPR40 agonistic activity in co-transfected HEK293T cells. In kind it is cell-based. To be noted: 4-hour treatment; for Efficacy (%): class symbols. The source says: The pcDNA3.0-flag-FFAR1 (GPR40) plasmid was constructed using conventional molecular cloning methods. The main steps were as follows: The full-length cDNA sequence of human FFAR1 (GPR40) (NM_005303.3) was inserted into the HindIII and XbaI restriction sites of the pcDNA3.0 vector via PCR technology, resulting in the pcDNA3.0-flag-FFAR1 (GPR40) plasmid; pGL4.30 [luc2P NFAT-RE] (# E8481) and pRL-TK (#E2241) plasmids were both purchased from Promega; the plasmids were transformed into DH5α E. coli using the CaCl2 method, further cultured and amplified, and then purified using a plasmid extraction kit (TIANGEN, # DP117) to obtain the corresponding plasmid DNA.
HEK293T cells were seeded in a 96-well plate at a density of 1 × 10^4/well one day prior to plasmid transfection. Cell transfection was performed according to the instructions of the transfection reagent FuGENE® HD (Promega, # E2311). The main steps were as follows: Taking one well as an example, plasmids pcDNA3.0-flag-FFAR1 (GPR40), pGL4.30 [luc2P NFAT-RE], and pRL-TK were added at ratios of 50 ng, 50 ng, and 5 ng, respectively, into 10 µL of Opti-MEM™ I medium (Gibco, #11058021) and mixed thoroughly; then, 0.2 µL of FuGENE® HD was added, mixed thoroughly, and allowed to stand at room temperature for 5 minutes; finally, this 10 µL mixture was added to the cell well containing 100 µL of culture medium. 24 hours after co-transfection, the compounds were serially diluted at half-logarithmic intervals with 1 µM as the highest concentration, resulting in 10 concentration gradients, which were added to the cell culture medium for a 4-hour treatment.
After 4 hours of compound treatment, the cells were assayed according to the instructions of the Dual-Glo® Luciferase Assay System (Promega, # E2940). The main steps were as follows: 50 µL of culture medium was aspirated from each well and discarded, followed by the addition of 50 µL of Dual-Glo® Luciferase Reagent, and the mixture was shaken at room temperature for 10 minutes. Then, 80 µL of the lysate reaction solution was transferred to a white opaque optiPlate-96 well plate, and the luminescence signal of Firefly luciferase (Firefly-Luc) was measured using an MD i3x multifunctional microplate reader. Subsequently, 40 µL of Dual-Glo® Stop & Glo® Reagent was added, and the mixture was shaken at room temperature for 10 minutes. Finally, the luminescence signal of Renilla luciferase (Renilla-Luc) was measured using the MD i3x multifunctional microplate reader. The ratio of Firefly-Luc/Renilla-Luc was used as the compound's agonistic activity toward GPR40, and normalization was performed using the ratio of the solvent DMSO group. A dose-response curve was fitted using a four-parameter model with GraphPad Prism 8.0 software to calculate the EC50 value.
A general note: Reporter assays use an easily measured gene product as a stand-in for the process of interest.

T1 sequence (O14842 whole entry): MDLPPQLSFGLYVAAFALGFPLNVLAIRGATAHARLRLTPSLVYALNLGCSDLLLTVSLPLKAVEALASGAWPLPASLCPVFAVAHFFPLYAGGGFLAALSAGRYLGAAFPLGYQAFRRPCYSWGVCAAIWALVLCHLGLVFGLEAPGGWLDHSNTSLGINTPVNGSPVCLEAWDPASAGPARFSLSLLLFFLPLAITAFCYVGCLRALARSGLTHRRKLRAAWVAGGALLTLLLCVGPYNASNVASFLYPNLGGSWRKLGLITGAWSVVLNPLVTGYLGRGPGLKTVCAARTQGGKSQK

In the case of `CCCCC[C@H]1CC[C@H](c2nnc(-c3c(C4CCN(c5cccc(OC)c5)CC4)oc4cc(C(CC(=O)O)C5CC5)ccc34)o2)CC1` (relative stereo) [Compound 138], the EC50 lay within 100 to 500 nM and the “Efficacy (%)” value is given as “†† (150 ≥ Efficacy (%) > 100)”.
For `COc1ccc(F)c(N2CCC(c3cc4ccc(C(CC(=O)O)C5CC5)cc4o3)CC2)c1` (stereo not drawn) [Comparative Example 1, reference compound] the same measures were above 1000 nM and “NA (NA indicates no activity)”.
For `CN1CCC(c2oc3cc(C(CC(=O)O)C4CC4)ccc3c2-c2cccc(C(C)(C)C)c2)CC1` (stereo not drawn) [Compound 1] the same measures were above 1000 nM and “† (100 ≥ Efficacy (%) > 50)”.
For `CC(C)(C)c1cccc(-c2c(-c3ccccc3)oc3cc(C(CC(=O)O)C4CC4)ccc23)c1` (stereo not drawn) [Compound 2], the EC50 was above 500 nM and the “Efficacy (%)” value is reported as “†† (150 ≥ Efficacy (%) > 100)”.
With `Cc1ccc(N2CCC(c3oc4cc(C(CC(=O)O)C5CC5)ccc4c3-c3cccc(C(C)(C)C)c3)CC2)cc1` (stereo not drawn) [Compound 3], the EC50 lay in the range of 100 to 500 nM and the “Efficacy (%)” value is recorded as “†† (150 ≥ Efficacy (%) > 100)”.
Regarding `Cc1cccc(N2CCC(c3oc4cc(C(CC(=O)O)C5CC5)ccc4c3-c3cccc(C(C)(C)C)c3)CC2)c1` (stereo not drawn) [Compound 4], the EC50 lay in the range of 100 to 500 nM and the “Efficacy (%)” value is recorded as “† (100 ≥ Efficacy (%) > 50)”.
As for `Cc1ccccc1N1CCC(c2oc3cc(C(CC(=O)O)C4CC4)ccc3c2-c2cccc(C(C)(C)C)c2)CC1` (stereo not drawn) [Compound 5], the EC50 lay within 100 to 500 nM and the “Efficacy (%)” value is “††† (Efficacy (%) > 150)”.
For `CCc1cccc(N2CCC(c3oc4cc(C(CC(=O)O)C5CC5)ccc4c3-c3ccc(C(C)(C)C)cc3)CC2)c1` (stereo not drawn) [Compound 6] the same measures were above 500 nM and “†† (150 ≥ Efficacy (%) > 100)”.
In the case of `CC(C)(C)c1cccc(-c2c(C3CCN(c4ccc(F)cc4)CC3)oc3cc(C(CC(=O)O)C4CC4)ccc23)c1` (stereo not drawn) [Compound 7], the EC50 was 100 to 500 nM and the “Efficacy (%)” value is “†† (150 ≥ Efficacy (%) > 100)”.
For `CC(C)(C)c1cccc(-c2c(C3CCN(c4cccc(F)c4)CC3)oc3cc(C(CC(=O)O)C4CC4)ccc23)c1` (stereo not drawn) [Compound 8], in that order: above 500 nM and “†† (150 ≥ Efficacy (%) > 100)”.
Consider `CC(C)(C)c1cccc(-c2c(C3CCN(c4ccccc4F)CC3)oc3cc(C(CC(=O)O)C4CC4)ccc23)c1` (stereo not drawn) [Compound 9], for which the concentration giving a half-maximal response (EC50) was in the range of 100 to 500 nM and the “Efficacy (%)” value is recorded as “†† (150 ≥ Efficacy (%) > 100)”.
`COc1ccc(N2CCC(c3oc4cc(C(CC(=O)O)C5CC5)ccc4c3-c3cccc(C(C)(C)C)c3)CC2)cc1` (stereo not drawn) [Compound 10]: the EC50 fell in the range of 100 to 500 nM and the “Efficacy (%)” value was “†† (150 ≥ Efficacy (%) > 100)”.
Take `COc1cccc(N2CCC(c3oc4cc(C(CC(=O)O)C5CC5)ccc4c3-c3cccc(C(C)(C)C)c3)CC2)c1` (stereo not drawn) [Compound 11]: the EC50 is 10 to 100 nM and the “Efficacy (%)” value is recorded as “††† (Efficacy (%) > 150)”.
`COc1cccc(N2CCC(c3oc4cc(C(CC(=O)O)C5CC5)ccc4c3-c3ccc(C(C)(C)C)cc3)CC2)c1` (stereo not drawn) [Compound 13]: the EC50 was in the range of 100 to 500 nM and the “Efficacy (%)” value was “††† (Efficacy (%) > 150)”.
For `CCOc1cccc(N2CCC(c3oc4cc(C(CC(=O)O)C5CC5)ccc4c3-c3ccc(C(C)(C)C)cc3)CC2)c1` (stereo not drawn) [Compound 15], in that order: 100 to 500 nM and “††† (Efficacy (%) > 150)”.
For `CC(C)(C)c1cccc(-c2c(C3CCN(c4cccc(C(F)(F)F)c4)CC3)oc3cc(C(CC(=O)O)C4CC4)ccc23)c1` (stereo not drawn) [Compound 20], in that order: 100 to 500 nM and “†† (150 ≥ Efficacy (%) > 100)”.
For `COc1ccccc1N1CCC(c2oc3cc(C(CC(=O)O)C4CC4)ccc3c2-c2cccc(C(C)(C)C)c2)CC1` (stereo not drawn) [Compound 21] the same measures were 100 to 500 nM and “†† (150 ≥ Efficacy (%) > 100)”.
As to `CC(C)(C)c1cccc(-c2c(C3CCN(c4ccccc4Cl)CC3)oc3cc(C(CC(=O)O)C4CC4)ccc23)c1` (stereo not drawn) [Compound 22], the EC50 fell in the range of 100 to 500 nM and the “Efficacy (%)” value is “†† (150 ≥ Efficacy (%) > 100)”.
As to `CC(C)(C)c1cccc(-c2c(C3CCN(c4ccccc4OC(F)(F)F)CC3)oc3cc(C(CC(=O)O)C4CC4)ccc23)c1` (stereo not drawn) [Compound 23], the EC50 was in the range of 100 to 500 nM and the “Efficacy (%)” value is recorded as “†† (150 ≥ Efficacy (%) > 100)”.
For `CNc1cccc(N2CCC(c3oc4cc(C(CC(=O)O)C5CC5)ccc4c3-c3ccc(C(C)(C)C)cc3)CC2)c1` (stereo not drawn) [Compound 24], in that order: 100 to 500 nM and “† (100 ≥ Efficacy (%) > 50)”.
For `CSc1cccc(N2CCC(c3oc4cc(C(CC(=O)O)C5CC5)ccc4c3-c3ccc(C(C)(C)C)cc3)CC2)c1` (stereo not drawn) [Compound 26] the same measures were 100 to 500 nM and “†† (150 ≥ Efficacy (%) > 100)”.
For `CC(C)(C)c1ccc(-c2c(C3CCN(c4cccc(S(C)(=O)=O)c4)CC3)oc3cc(C(CC(=O)O)C4CC4)ccc23)cc1` (stereo not drawn) [Compound 27] the same measures were 100 to 500 nM and “† (100 ≥ Efficacy (%) > 50)”.
In the case of `COc1cccc(N2CCC(c3oc4cc([C@@H](CC(=O)O)C5CC5)ccc4c3-c3cccc(C)c3)CC2)c1` [Compound 28], the EC50 lay in the range of 100 to 500 nM and the “Efficacy (%)” value is reported as “††† (Efficacy (%) > 150)”.
`COc1cccc(-c2c(C3CCN(c4cccc(OC)c4)CC3)oc3cc(C(CC(=O)O)C4CC4)ccc23)c1` (stereo not drawn) [Compound 29]: the EC50 was 100 to 500 nM and the “Efficacy (%)” value was “†† (150 ≥ Efficacy (%) > 100)”.
For `C=C(C)c1ccc(-c2c(C3CCN(c4cccc(OC)c4)CC3)oc3cc(C(CC(=O)O)C4CC4)ccc23)cc1` (stereo not drawn) [Compound 30], in that order: 100 to 500 nM and “†† (150 ≥ Efficacy (%) > 100)”.
For `CSc1cccc(N2CCC(c3oc4cc(C(CC(=O)O)C5CC5)ccc4c3-c3cccc(C(C)(C)C)c3)CC2)c1` (stereo not drawn) [Compound 31] the same measures were 100 to 500 nM and “†† (150 ≥ Efficacy (%) > 100)”.
Consider `COc1ccnc(N2CCC(c3oc4cc(C(CC(=O)O)C5CC5)ccc4c3-c3ccc(C(C)(C)C)cc3)CC2)c1` (stereo not drawn) [Compound 32], for which the concentration for a half-maximal effect (EC50) lay within 100 to 500 nM and the “Efficacy (%)” value is on record as “†† (150 ≥ Efficacy (%) > 100)”.
With `COc1cccc(N2CCC(c3oc4cc([C@@H](CC(=O)O)C5CC5)ccc4c3-c3ccc(OC(C)C)cc3)CC2)c1` [Compound 33], the EC50 lay in the range of 10 to 100 nM and the “Efficacy (%)” value is given as “†† (150 ≥ Efficacy (%) > 100)”.
For `COc1cccc(N2CCC(c3oc4cc([C@@H](CC(=O)O)C5CC5)ccc4c3-c3cccc(NC(C)C)c3)CC2)c1` [Compound 34], the EC50 lay in the range of 10 to 100 nM and the “Efficacy (%)” value is listed as “†† (150 ≥ Efficacy (%) > 100)”.
`COc1cccc(N2CCC(c3oc4cc(C(CC(=O)O)C5CC5)ccc4c3-c3csc(C)c3)CC2)c1` (stereo not drawn) [Compound 35]: the EC50 was 100 to 500 nM and the “Efficacy (%)” value was “†† (150 ≥ Efficacy (%) > 100)”.
For `COc1cccc(N2CCC(c3oc4cc(C(CC(=O)O)C5CC5)ccc4c3-c3cnn(C)c3)CC2)c1` (stereo not drawn) [Compound 36], in that order: 100 to 500 nM and “†† (150 ≥ Efficacy (%) > 100)”.
For the molecule `CCn1cc(-c2c(C3CCN(c4cccc(OC)c4)CC3)oc3cc(C(CC(=O)O)C4CC4)ccc23)cn1` (stereo not drawn) [Compound 37], the EC50 lay within 100 to 500 nM and the “Efficacy (%)” value is given as “†† (150 ≥ Efficacy (%) > 100)”.
For the molecule `CC(C)(C)n1cc(-c2c(C3CCN(c4ccccc4)CC3)oc3cc(C(CC(=O)O)C4CC4)ccc23)cn1` (stereo not drawn) [Compound 39], the EC50 lay within 100 to 500 nM and the “Efficacy (%)” value is reported as “††† (Efficacy (%) > 150)”.
As to `CC(C)(C)n1cc(-c2c(C3CCN(c4cccc(F)c4)CC3)oc3cc(C(CC(=O)O)C4CC4)ccc23)cn1` (stereo not drawn) [Compound 41], the EC50 lay within 100 to 500 nM and the “Efficacy (%)” value is “†† (150 ≥ Efficacy (%) > 100)”.
For `CC(C)(C)n1cc(-c2c(C3CCN(c4cccc(OC(F)F)c4)CC3)oc3cc(C(CC(=O)O)C4CC4)ccc23)cn1` (stereo not drawn) [Compound 43] the same measures were 100 to 500 nM and “†† (150 ≥ Efficacy (%) > 100)”.
Regarding `COc1ccc(C#N)c(N2CCC(c3oc4cc(C(CC(=O)O)C5CC5)ccc4c3-c3cnn(C(C)(C)C)c3)CC2)c1` (stereo not drawn) [Compound 44], the half-maximal effective concentration (EC50) was 100 to 500 nM and the “Efficacy (%)” value is “†† (150 ≥ Efficacy (%) > 100)”.

For the origin of these results see EP4682145A1, “BENZOHETEROCYCLIC COMPOUND, AND PREPARATION METHOD THEREFOR AND USE THEREOF” (Cascade Pharmaceuticals, Inc., priority 2023, dated 2024).
